Experimental findings from PubChem BioAssay (NCI) are described below.

Test in all cases: NCI-60 cell line screen, 48 h
The subject of experiment [1] is CCRF-CEM leukemia.
For experiment [2], the system named is DU-145 prostate.
Experiment [3] deals with MCF7 breast.
Experiment [4] deals with MDA-MB-435.
Experiment [5] relates to NCI-H522 lung.
In experiment [6] the test system is OVCAR-5 ovarian.
In experiment [7] the test system is RXF 393 renal.
In experiment [8] the test system is SNB-75 CNS.
Experiment [9] deals with TK-10 renal.
The subject of experiment [10] is SK-MEL-2 melanoma.

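Five concentrations, 48 hours, 96-well plates. TGI marks complete inhibition of growth.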

Regarding `CC(=O)OCC1OC(c2nc3ccccc3s2)=CC(OC(C)=O)C1OC(C)=O` (configuration not stated), the TGI in experiment [1], in experiment [2], in experiment [3], in experiment [4], in [5] and in experiment [6] was above 100 µM in each case. For the same compound, the TGI in experiment [7], in experiment [8] and in experiment [9] was above 100 µM in each case.

For `COc1cc(OC)nc(-n2c(N)c(C#N)c3ccc([N+](=O)[O-])cc3c2=O)n1`, the TGI in experiment [1] was above 100 µM; in [2], above 100 µM; in experiment [3], above 100 µM; in experiment [4] it was above 100 µM; in experiment [5] it was 55.4 µM; in experiment [6] it was above 100 µM. The TGI in [10], in [8] and in experiment [9] was above 100 µM throughout.

In the case of `C/C=C\C(CC(=O)NCCC1CN(S(=O)(=O)c2ccc(C)cc2)c2ccccc21)CC(=O)OC` (configuration not stated), the TGI in [2], in [3], in experiment [4], in experiment [5], in experiment [6] and in [7] was above 100 µM each time. Besides, the TGI in experiment [10], in [8] and in [9] was above 100 µM in each case.

Turning to `C=CCOC(=O)NC1C(OC(C)[C@@H](NC(=O)OCc2ccccc2)C(=O)OC(C)(C)C)OC(COC(C)=O)C(OC(C)=O)C1OC(C)=O` (some centres not stated), the TGI in experiment [1], in experiment [2], in [3], in [4], in experiment [5] and in experiment [6] was above 100 µM in each case. Further, the TGI in [7] was above 100 µM; in experiment [8], 9.46 µM; in [9], above 100 µM.

As for `CCOC(=O)c1nc2ccccc2nc1NCc1cc(OC)c(OC)c(OC)c1`, the TGI in experiment [1] was above 100 µM; in experiment [2], above 100 µM; in experiment [3] it was above 100 µM; in experiment [4], 71.8 µM; in experiment [5], above 100 µM; in [6] it was above 100 µM. The TGI in [7], in experiment [8] and in experiment [9] was above 100 µM in each case.

As to `O=c1c2nc3ccccc3c(=O)n2ncn1-c1ccccc1Cl`, the TGI in experiment [1], in experiment [2], in [3], in [4], in experiment [5] and in experiment [6] was above 100 µM throughout. Further, the TGI in experiment [10], in [8] and in experiment [9] was above 100 µM each time.

For the compound `CCCCCCCCCCCCCCCCOCC(CC(F)(F)P(=O)(OCC)OCC)OC(C)=O` (configuration not stated), the TGI in experiment [2] amounted to 28.8 µM; in [3] it was 33.5 µM; in [4], 33.9 µM; in experiment [5] it was 31.2 µM; in experiment [6], 34.7 µM; in experiment [7], 38.5 µM. Further, the results for the TGI in experiment [10], in [8] and in experiment [9] were 35.9 µM, 32.9 µM and 27.3 µM, respectively.

With `Cc1cn(C2CC(O)C(COC(=O)NCCC(F)(F)C(F)(F)C(F)(F)C(F)(F)F)O2)c(=O)[nH]c1=O` (configuration not stated), the TGI in experiment [1], in experiment [2], in experiment [3], in [4], in [5] and in [6] was above 100 µM in each case. The TGI in experiment [7], in experiment [8] and in [9] was above 100 µM throughout.

Regarding `CC(=O)Oc1ccc(-c2cc3ccccc3oc2=O)cc1`, the TGI in experiment [1], in experiment [2], in [3], in experiment [4], in experiment [5] and in [6] was above 100 µM each time. In addition, the TGI in [10], in [8] and in experiment [9] was above 100 µM each time.

Consider `CC(C)(C)OC(=O)N1CCC(C(=O)O)CC1`, for which the TGI in [1], in [2], in experiment [3], in experiment [4], in experiment [5] and in experiment [6] was above 100 µM in each case. The TGI in experiment [10], in experiment [8] and in experiment [9] was above 100 µM in each case.

Take `O=S(Nc1ccccc1)c1cccc(Cl)c1` (configuration not stated): the TGI in [1], in experiment [2], in [3], in experiment [4], in experiment [5] and in [6] was above 100 µM throughout. The TGI in experiment [7], in experiment [8] and in experiment [9] was above 100 µM in each case.

Take `CCN(CC)/C(Sc1ccccc1)=C(\C(Cl)=C(Cl)Cl)[N+](=O)[O-]`: the TGI was 20.9 µM in experiment [1]; 34.9 µM in experiment [2]; 30.2 µM in experiment [3]; 27.7 µM in [4]; 33.3 µM in experiment [5]; 36.8 µM in [7]. Also, the TGI in [8] worked out at 57.3 µM; in experiment [9] it was 31.3 µM.
